Laboratory results from patent publication EP0404162A1, “Composition for treating pigmentation” (priority 1989, dated 1990).

Tests used:
[1] = Toxicity (LD50), subcutaneous administration, rats; details: rat, in vivo, sc, read-out: LD₅₀
Method: (§1) The toxicity of kojic acid which is the effective ingredient of the present invention is extremely low; LD₅₀ is 2.050 mg/kg in mice and 2.260 mg/kg in rats, by subcutaneous administration. Therefore, the present invention is quite safe as a medicament.

[2] = Toxicity (LD50), subcutaneous administration, mice; details: mouse, in vivo, sc, read-out: LD₅₀
Method: as §1

SMILES: O=c1cc(CO)occ1O [kojic acid, 5-oxy-2-oxymethyl-γ-pyrone]
- LD50 [1]: 2.26 mg/kg
- LD50 [2]: 2.05 mg/kg
